These results are taken from PMC9845707, “Involvement of three chemosensory proteins in perception of host plant volatiles in the tea green leafhopper, Empoasca onukii” (Frontiers in Physiology, 2023).

pIC50, pKd: −log10 of the molar value.

One test concerns E. onukii adults. Put plainly: Y-tube olfactometer assay (behavioral response). Type of test: in vivo, Empoasca onukii. To be noted: 20 μL of 10 μg/μL in methanol, 90 adults per volatile. Here is the method: We use a Y-tube olfactometer (1.5 cm in diameter, arms with 8 cm length, and a stem with 18 cm length) to detect the behavioral response of E. onukii to volatiles. The incoming air to the tube was firstly filtered using active carbon and then humidified with the ultrapure water. The air through the arms was blown at a constant flow ([…]). A total of 20 μL tested volatile oil (10 μg/μL in methanol (HPLC)) pipetted onto 1 cm diameter filter paper. This filter paper was placed in the chamber, which connected to one arm of the Y-tube olfactometer. As control, the same filter paper treated with 20 μL of methanol was placed in the chamber connected to another arm of the Y-tube. This experiment was performed in the dark room, which employed a light-emitting diode as the light source. Each adult was introduced into the middle of the stem of the Y-tube and the individuals that made a choice within 8 min were recorded. Individuals moving toward the odorant source for half of the arm distance and stayed for 1 minute were recorded as odorant choice. For each volatile component, 90 adult were used. After 10 insects were tested, the Y-tube olfactometer was washed with 75% ethanol and air-dried, and tested volatiles were placed in another arm for the subsequent tests.

Another test deals with EonuCSP 6-1 (Empoasca onukii, UniProt A0A343WH12). Put plainly: Competitive fluorescence binding assay (1-NPN probe) with recombinant EonuCSP6-1. Here is the method:
(§1) N-phenyl-1-naphthylamine (1-NPN) was used as the fluorescent probe. The excitation wavelength in the fluorescence spectrometer was set to 337 nm, which was the results of an optimization that we achieved in lab. The scanning wavelength was 420–600 nm.
(§2) The tested chemicals were dissolved in methanol in preparation for 1 mM stock solution. […] We determined the binding constants of 1-NPN by Scatchard formula. […] The binding affinities of the competitors were evaluated from the corresponding IC50 according to the equation: K i = IC50/(1 + [1-NPN]/K1-NPN).

In another test the target is EonuCSP4 (Empoasca onukii, UniProt A0A343WGZ9). Put plainly: Competitive fluorescence binding assay (1-NPN probe) with recombinant EonuCSP4. The protocol: as §1, §2
Another test concerns the target EonuCSP6-2 (Empoasca onukii, UniProt A0A343WH13). Put plainly: Competitive fluorescence binding assay (1-NPN probe) with recombinant EonuCSP6-2. The protocol: as §1, §2

EonuCSP 6-1, sequence (A0A343WH12 entry or part of it): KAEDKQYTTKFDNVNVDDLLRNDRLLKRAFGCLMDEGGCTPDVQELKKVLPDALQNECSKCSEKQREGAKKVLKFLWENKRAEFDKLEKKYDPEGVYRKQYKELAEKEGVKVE
EonuCSP4, sequence (A0A343WGZ9 entry or part of it): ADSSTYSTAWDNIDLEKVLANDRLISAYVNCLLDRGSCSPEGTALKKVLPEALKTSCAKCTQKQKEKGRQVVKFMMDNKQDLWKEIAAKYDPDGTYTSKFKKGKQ
EonuCSP6-2, sequence (A0A343WH13 entry or part of it): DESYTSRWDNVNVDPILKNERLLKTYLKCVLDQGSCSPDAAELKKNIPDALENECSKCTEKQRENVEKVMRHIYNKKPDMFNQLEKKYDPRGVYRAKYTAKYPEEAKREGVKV

Consider `CC/C=C\CCOC(=O)CCCC` [Cis-3-Hexenyl n-valerate], for which, in the test on E. onukii adults, the “behavioral response of E. onukii adults (choice versus methanol control)” value is “significant preference”.

On to `O=Cc1ccccc1` [Benzaldehyde], for which the pIC50 (in general, the negative decadic logarithm of the IC50, by convention in mol/L) on EonuCSP 6-1 was less than 4.70. Further, the “behavioral response of E. onukii adults (choice versus methanol control)” value in the test on E. onukii adults is given as “significant preference”.

Take `c1ccc(Nc2cccc3ccccc23)cc1` [1-NPN, N-phenyl-1-naphthylamine]: the results for the pKd at EonuCSP4, on EonuCSP 6-1 and at EonuCSP6-2 were 4.96, 4.90 and 4.99, respectively.
